According to patent US20080280945A1, “Crystalline forms of an HIV integrase inhibitor” (priority 2007, published 2008):
Values after ≈ are worked out from the molar mass of the structure shown.

How the values were obtained:
[1] = solubility in water at 25° C. (ReactArray ST system, HPLC); assay type: physicochemical; settings: for Solubility: equilibrated 24 h, average of last four hours, mean ± SE of 4 samples (amorphous: 1 sample); for Comment (form of excess solid): excess solid after solubility experiment
Protocol: The solubilities of crystalline ethanolate, crystalline hydrate and crystalline anhydrate were determined in water at 25° C. using a ReactArray ST™ system (Anachem, UK). Approximately 50 mg of material was transferred to a sample tube and 1.5 mL of water was added to it. The tubes were mounted on a temperature control block and the slurry was stirred at 400 rpm using a magnetic stir bar. The solution was equilibrated for 24 hours following which the concentration was monitored every hour for 6 hours.
HPLC conditions: column=C18 Bridge column (Waters Corporation), 4.6 mm×50 mm and 2.5 μm particle size; temperature=25° C., UV detection at λ=220 nm; flow rate=1 mL/minute; injection volume=5 μL; mobile phase=initial conditions at 20% acetonitrile and 80% 0.1% phosphate buffer with a gradient from 20% acetonitrile to 95% acetonitrile in 3 minutes, hold at 95% acetonitrile for 3 minutes, then from 95% to 20% acetonitrile in 0.1 minute (run time: 7 minutes), followed by 1 minute conditioning.

[2] = thermal stability studies, 2 weeks storage, HPLC and XRPD; assay type: physicochemical; settings: for Loss at 40° C., 75% RH / Loss at 60° C., ambient RH: 2 weeks storage, HPLC, NLQ = no loss greater than the limit of quantitation
Protocol: One set of samples of the amorphous, crystalline ethanolate, crystalline hydrate, and crystalline anhydrate forms of Isomer M were stored in a GMP stability chamber at 40° C. and 75% relative humidity (RH) and another set of analogous samples was stored at 60° C. and ambient RH in a Vacuum Oven, NAPCO (National Appliance Company) Model 5831. The samples were analyzed by XRPD and by HPLC before and after 2 weeks storage. HPLC conditions: column=Symmetry Shield RP18 15 cm×4.6 mm (Waters Corporation) with 3.5 μm particle size; temperature=25° C., UV detection at λ=220 nm; flow rate=1 mL/minute; injection volume=10 μL; mobile phase=initial conditions at 20% acetonitrile and 80% 0.1% phosphate buffer with a gradient from 20% acetonitrile to 35% acetonitrile in 8 minutes, hold at 35% acetonitrile for 5 minutes, from 35% to 60% acetonitrile in 13 minutes, from 60% to 90% acetonitrile in 10 minutes (run time: 36 minutes, equilibration time: 10 minutes).

[3] = test system: acute HIV infection of T-lymphoid cells; assay: inhibition of acute HIV infection of T-lymphoid cells (Vacca et al.); assay type: cell-based; settings: n=6
[4] = after 2 weeks at 60° C., ambient RH

CN1C[C@H](O)C(C)(C)Cn2c(c3c(c(O)c2=O)C(=O)N(Cc2ccc(F)c(Cl)c2)CC3)C1=O [Amorphous, M-(4R)-11-(3-chloro-4-fluorobenzyl)-4,9-dihydroxy-2,5,5-trimethyl-3,4,5,6,12,13-hexahydro-2H[1,4]diazocino[2,1-a]-2,6-naphthyridine-1,8,10(11H)-trione]
Solubility [1]: 0.83 mg/mL (≈ 1740 µM)
Comment (form of excess solid) [1]: Excess solid is amorphous
Loss at 40° C., 75% RH [2]: 8.9 A %

CN1C[C@H](O)C(C)(C)Cn2c(c3c(c(O)c2=O)C(=O)N(Cc2ccc(F)c(Cl)c2)CC3)C1=O [Crystalline anhydrate, M-(4R)-11-(3-chloro-4-fluorobenzyl)-4,9-dihydroxy-2,5,5-trimethyl-3,4,5,6,12,13-hexahydro-2H[1,4]diazocino[2,1-a]-2,6-naphthyridine-1,8,10(11H)-trione anhydrate]
Solubility [1]: 0.124 (±0.010) mg/mL
Comment (form of excess solid) [1]: Excess solid is anhydrate
Loss at 40° C., 75% RH [2]: NLQ
Loss at 60° C., ambient RH [2]: NLQ
XRPD (form change) ([2]; after 2 weeks at 40° C., 75% RH): no detectable change
XRPD (form change) [2, 4]: no detectable change

CN1C[C@H](O)C(C)(C)Cn2c(c3c(c(O)c2=O)C(=O)N(Cc2ccc(F)c(Cl)c2)CC3)C1=O [Crystalline ethanolate, M-(4R)-11-(3-chloro-4-fluorobenzyl)-4,9-dihydroxy-2,5,5-trimethyl-3,4,5,6,12,13-hexahydro-2H[1,4]diazocino[2,1-a]-2,6-naphthyridine-1,8,10(11H)-trione ethanolate]
Solubility [1]: 0.071 (±0.002) mg/mL
Comment (form of excess solid) [1]: Excess solid converts to hydrate
Loss at 40° C., 75% RH [2]: 0.3 A %
Loss at 60° C., ambient RH [2]: 11.5 A %
XRPD (form change) [2, 4]: no detectable change

CN1C[C@H](O)C(C)(C)Cn2c(c3c(c(O)c2=O)C(=O)N(Cc2ccc(F)c(Cl)c2)CC3)C1=O [Isomer M, M-(4R)-11-(3-chloro-4-fluorobenzyl)-4,9-dihydroxy-2,5,5-trimethyl-3,4,5,6,12,13-hexahydro-2H[1,4]diazocino[2,1-a]-2,6-naphthyridine-1,8,10(11H)-trione]
IC95 ([3]; in the presence of 10% FBS): 15.6±0 1M
IC95 ([3]; in the presence of 50% human serum): 51.7±16
